SMILES strings stand for the structures.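 Exposure lasted 48 hours, with cells grown in 96-well plates and compounds tested at five concentrations. At the GI50, growth is halved. The concentration for full growth arrest is given as TGI.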

Our source for the GI50 and TGI values is PubChem BioAssay (NCI).

Holding throughout (assay): inhibition of tumour cell growth, NCI panel, 48 h
The subject of experiment [1] is 786-0 renal.
Experiment [2] has as its system CAKI-1 renal.
Experiment [3] deals with HOP-92 NSCLC.
Experiment [4] deals with LOX IMVI melanoma.
Experiment [5] concerns MALME-3M melanoma.
The test system of experiment [6] is MCF7 breast.
The test system of experiment [7] is OVCAR-5 ovarian.
The subject of experiment [8] is RPMI-8226 leukemia.
Experiment [9] deals with SF-268 CNS.
In experiment [10] the test system is SK-MEL-2 melanoma.

`O=C(COc1ccc(/C=C2\Oc3ccc4ccccc4c3C2=O)cc1)c1ccc([N+](=O)[O-])cc1`: the GI50 in [1] was 14.7 µM; in experiment [2] it was 18.8 µM; in [3], 19.8 µM; in [4], 2.88 µM; in experiment [5], 13.3 µM; in experiment [6], 1.71 µM. Moreover, the GI50 was 16.4 µM in experiment [7], 1.6 µM in experiment [8], 13.2 µM in experiment [9] and 15.5 µM in experiment [10]. Also, the TGI in experiment [1] is 34.6 µM; in [2], 35.4 µM; in experiment [3], 69.6 µM; in experiment [4], 10.8 µM; in experiment [5], 39.8 µM; in experiment [6] it was 20.3 µM. The TGI in experiment [7] was 30.7 µM; in experiment [8], 5.11 µM; in experiment [9], 33.7 µM; in experiment [10] it was 73.7 µM.

`O=C1/C(=C/c2cccnc2)SC(=S)N1Cc1ccco1`: the TGI in experiment [1] was greater than 40.8 µM; in experiment [2] it was 80.6 µM; in experiment [3], greater than 43.1 µM; in experiment [4] it was greater than 100 µM; in experiment [5] it was greater than 43.5 µM; in [6] it was greater than 100 µM. Moreover, the TGI in experiment [7] was greater than 81.7 µM; in experiment [8], greater than 23.7 µM; in [9], greater than 23.9 µM; in experiment [10], greater than 27.2 µM.

Regarding `C[C@@H](Nc1nc(N[C@H](C)C(F)(F)F)nc(-c2cccc(Cl)n2)n1)C(F)(F)F`, the GI50 was 27.4 µM in experiment [1]; 24.9 µM in experiment [2]; 10.1 µM in [3]; 79.8 µM in experiment [4]; 60.2 µM in [5]; 50.6 µM in experiment [6]. The GI50 in [7] is greater than 100 µM; in [8], greater than 100 µM; in [9], 29.4 µM; in experiment [10] it was 25.6 µM. Also, the TGI in experiment [1] is 91.4 µM; in experiment [2] it was 96.2 µM; in experiment [3] it was 63.6 µM; in [4] it was greater than 100 µM; in experiment [5] it was greater than 100 µM; in [6], greater than 100 µM. Also, the TGI in experiment [7], in experiment [8], in [9] and in [10] was greater than 100 µM in each case.

Turning to `CCn1cnc(C[C@H](NC(=O)[C@H](CCCCNC(=O)Nc2cc(C(F)(F)F)cc(C(F)(F)F)c2)NC(=O)Nc2cc(C(F)(F)F)cc(C(F)(F)F)c2)C(=O)OC)c1`, the GI50 in [1] is 8.78 µM; in [2] it was greater than 10 µM; in experiment [3], 2.24 µM; in experiment [4] it was 3.56 µM; in experiment [5] it was greater than 10 µM; in experiment [6] it was 3.51 µM. Besides, the GI50 was greater than 10 µM in experiment [7], 3.08 µM in [8], 6.04 µM in experiment [9] and greater than 10 µM in [10]. Further, the TGI in [1] is greater than 10 µM; in experiment [2], greater than 10 µM; in experiment [3], 9.81 µM; in experiment [4] it was greater than 10 µM; in [5] it was greater than 10 µM; in experiment [6] it was greater than 10 µM. Also, the TGI in [7], in [8], in experiment [9] and in experiment [10] was greater than 10 µM in each case.

With `CCCCCC/C=C/C#CCCCCCCCC(=O)O`, the TGI in [1], in experiment [2], in experiment [3], in [4], in experiment [5] and in [6] was greater than 100 µM throughout. The TGI in [7], in experiment [8], in [9] and in experiment [10] was greater than 100 µM throughout.

Regarding `Cc1cccc(C(C)(C)C)c1NC(=O)C(C#N)C1=C(Cl)C(=O)c2ccccc2C1=O` (stereo not given), the TGI turned out to be 30 µM in experiment [1]; 31.5 µM in experiment [2]; 9.68 µM in experiment [3]; 30.7 µM in [4]; 31.1 µM in experiment [5]; 32.9 µM in experiment [6]. Moreover, the TGI in [7] turned out to be 32 µM; in experiment [8], 49.2 µM; in [9], 31.2 µM; in experiment [10], 30.7 µM.

Turning to `Oc1ccc(NC(=S)Nc2ccccc2)cc1`, the GI50 in experiment [1] was greater than 100 µM; in [2], greater than 100 µM; in experiment [3] it was 51.8 µM; in experiment [4] it was greater than 100 µM; in [5], greater than 100 µM; in experiment [6], greater than 100 µM. The GI50 in [7], in experiment [8], in [9] and in [10] was greater than 100 µM throughout. Besides, the TGI in experiment [1], in [2], in [3], in experiment [4], in [5] and in experiment [6] was greater than 100 µM throughout. Besides, the TGI in experiment [7], in experiment [8], in experiment [9] and in [10] was greater than 100 µM throughout.

With `C[C@@H](O)[C@@H](C)Oc1nc(Nc2ccc(S(=N)(=O)C3CC3)cc2)ncc1C(F)(F)F` (stereo not given in full), the GI50 in [1] was 0.0352 µM; in experiment [2], 0.039 µM; in [3], 0.026 µM; in experiment [4] it was 0.0178 µM; in experiment [5], 0.0455 µM; in [6], 0.0169 µM. The GI50 in [7] was 0.033 µM; in experiment [8], 0.0226 µM; in experiment [9], 0.03 µM; in [10], 0.0219 µM. In addition, the TGI in experiment [1] is 17.8 µM; in [2], greater than 100 µM; in experiment [3], 0.0753 µM; in experiment [4] it was 10.7 µM; in experiment [5], 0.167 µM; in experiment [6] it was 29.7 µM. Moreover, the TGI is greater than 70.6 µM in [7], 0.0586 µM in [8], 0.726 µM in experiment [9] and 0.0621 µM in [10].
